# Values quoted from earlier work in patent US12371748B2, “Genetic markers for predicting responsiveness to therapy with HDL-raising or HDL mimicking agent” (Hoffmann-La Roche Inc., priority 2014, dated 2025).
# Key:
# [1] = rabbits; cited from earlier work
# [2] = target: T1, CETP (Oryctolagus cuniculus, UniProt P22687); details: rabbits; cited from earlier work
# T1 construct: host or cells: rabbits (in vivo; endogenous plasma CETP)
# T1 sequence (P22687 2-497): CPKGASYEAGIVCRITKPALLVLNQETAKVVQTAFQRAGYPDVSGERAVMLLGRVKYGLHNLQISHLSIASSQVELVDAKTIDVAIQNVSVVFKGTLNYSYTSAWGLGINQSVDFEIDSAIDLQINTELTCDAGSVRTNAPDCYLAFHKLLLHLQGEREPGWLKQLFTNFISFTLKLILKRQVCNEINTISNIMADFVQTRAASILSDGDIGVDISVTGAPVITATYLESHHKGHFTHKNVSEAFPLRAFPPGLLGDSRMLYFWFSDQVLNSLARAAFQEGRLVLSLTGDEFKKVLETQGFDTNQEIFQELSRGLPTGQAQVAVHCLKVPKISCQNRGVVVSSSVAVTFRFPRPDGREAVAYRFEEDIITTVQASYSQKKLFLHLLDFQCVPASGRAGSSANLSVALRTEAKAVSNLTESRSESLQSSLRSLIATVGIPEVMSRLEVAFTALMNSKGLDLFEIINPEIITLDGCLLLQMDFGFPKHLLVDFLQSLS
# [3] = target: T2, CETP (Homo sapiens, UniProt P11597); details: humans; cited from earlier work
# T2 construct: host or cells: humans (in vivo; endogenous plasma CETP)
# T2 sequence (P11597 18-493): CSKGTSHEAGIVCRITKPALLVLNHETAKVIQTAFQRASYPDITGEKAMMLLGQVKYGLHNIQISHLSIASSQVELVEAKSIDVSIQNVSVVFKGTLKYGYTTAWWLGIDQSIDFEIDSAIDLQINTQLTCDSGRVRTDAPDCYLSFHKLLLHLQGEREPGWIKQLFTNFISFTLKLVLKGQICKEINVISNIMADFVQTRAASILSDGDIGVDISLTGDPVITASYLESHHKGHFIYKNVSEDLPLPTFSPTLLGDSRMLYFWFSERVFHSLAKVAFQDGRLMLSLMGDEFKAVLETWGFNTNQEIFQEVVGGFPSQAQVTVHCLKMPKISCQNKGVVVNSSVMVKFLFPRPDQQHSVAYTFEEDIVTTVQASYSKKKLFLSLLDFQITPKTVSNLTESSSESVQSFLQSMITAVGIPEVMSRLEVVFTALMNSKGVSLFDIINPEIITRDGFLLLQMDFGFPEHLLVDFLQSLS
structure (smiles),measurement,setting,value
"CCC(CC)CC1(C(=O)Nc2ccccc2SC(=O)C(C)C)CCCCC1 [dalcetrapib, thioisobutyric acid S-(2-{[1-(2-ethyl-butyl)-cyclohexanecarbonyl]-amino}-phenyl) ester]",LDL cholesterol,[1],decrease LDL cholesterol
same,plasma HDL cholesterol,[1],increase plasma HDL cholesterol
same,CETP activity,[2],inhibitor of CETP activity
same,CETP activity,[3],inhibitor of CETP activity
